Molecules are shown by their SMILES. Read-outs that look alike come from different tables or passages of the source.

The subject of data set [1] is 4T1 mouse breast cancer cells (TNBC). As to the kind of experiment: Syngeneic orthotopic 4T1 breast cancer model in BALB/c mice, tumor volume. The class given is in vivo. The source says: Compound 19 was selected to be tested against a syngeneic breast cancer model induced by orthotopic inoculation of 4T1 mouse breast cancer cells (TNBC) into BALB/c mice. In that exploratory study, we aimed to investigate for the first time a proposed anticancer efficacy of that compound. For that purpose, three groups were included in the study, each comprising eight animals. The resulting total number of 24 animals aimed to avoid under- or overpowering of the study. The animals were kept under standard laboratory conditions with an ad libitum regime for food and water intake. 5 × 10^4 of 4T1 cells in 50 µL PBS were inoculated in the fourth right mammary fat pad of female mice at day 0. Anesthesia was induced using a combination of ketamine and xylazine at doses of 60 mg/kg and 7.5 mg/kg, respectively.
On day 6, the mice were assigned to the study groups using a stratified randomization approach, ensuring that the mean tumor volumes were as similar as possible across all groups. The control group was treated with 400 µL of vehicle solution, the low dose compound 19 group with 5 mg/kg in 400 µL of vehicle, and the high dose group with […] in 400 µL of vehicle. The vehicle was 4% (v/v) DMSO in PBS, and the administration route was intraperitoneal (i.p.). The animals were treated daily on days 6–10 (starting from the day when tumors became palpable), 13–17 and day 20. Animals were visually examined daily, and urine samples were collected on the first and last day of treatment and analyzed by Multistix urine test stripes (Siemens Healthineers, Erlangen, Germany). On day 21 of the experiment, the mice were sacrificed using cervical dislocation. Following the sacrifice, the tumor diameters were measured using a caliper. The tumor volume (V) was then calculated using the formula V = L*W^2*0.52[36], where L represents the longest diameter and W the shortest diameter of the tumor.

The subject of data set [2] is MCF-7. As to the kind of experiment: Crystal violet (CV) cell viability assay, IC50 determination. The class given is cell-based. The following applies: Homo sapiens, MCF7, 72 h treatment, mean ± SD. As for the experimental part: (§1) For initial testing of the cytotoxic effect of the available glycophymine compounds (Table S2), cells were treated with compound in three concentrations: 1, 10 and 50 µM. Cells were seeded in 96-well plates and allowed to adhere overnight. Then they were treated for 72 h under standard culture conditions. […] For IC50 determination, the compounds were tested at seven concentrations (0.78, 1.56, 3.13, 6.25, 12.5, 25 and 50 µM). Subsequently, the cell viability was determined by using the crystal violet (CV) assay. Moreover, the selected compounds were tested against the mouse breast cancer cell line 4T1 (TNBC) as well. The compounds were prepared initially to obtain a stock solution of 20 mM in DMSO. Later, the working solutions were prepared by mixing the required amount of DMSO stock with the optimal medium for each cell line. The DMSO concentration in the final solution was always maintained lower than 0.5% to avoid any DMSO-derived side effects.
(§2) For CV assays, after 72 h treatment, the treatment medium was discarded from the 96-well plates, and the cells were washed using 50 µL of PBS. Cells were fixed by adding 50 µL of 4% (v/v) paraformaldehyde (PFA) in PBS for 15 min at room temperature (RT). Afterwards, PFA was discarded, and the plates were dried for 15 min at RT. 50 µL of CV working solution (0.1% w/v CV in PBS) were added to the wells, followed by 15 min incubation at RT. Subsequently, the CV solution was discarded, and the plates were washed using aqua bidest. (ddH2O) to remove any remaining CV solution. The plates were left to dry overnight at RT, and then 50 µL of 33% (v/v) acetic acid in ddH2O were added to each well. Finally, the absorbance was measured at 570 nm by using a SpectraMax M5 plate reader (Molecular Devices, California, USA) and at 670 nm as background wavelength. […] Additionally, gefitinib, an approved EGFR inhibitor of the quinazoline family, was tested as anti-proliferative positive control. The data represent the mean ± standard deviation derived from three independent biological replicates. Dose–response curves were generated by four-parametric non-linear regression analysis using the GraphPad Prism software (version: 10.1, San Diego, CA, USA). Based on that, IC50 values and standard deviations were calculated for each replicate individually.

Data set [3] has as its system HCC1937. The description is as above. The class given is cell-based. The conditions noted are these: Homo sapiens, 72 h treatment, mean ± SD. As for the experimental part: as §1, §2
The subject of data set [4] is 4T1. The description is as above. The conditions noted are these: Mus musculus, 72 h treatment, mean ± SD. It counts as cell-based. As for the experimental part: as §1, §2
The subject of data set [5] is BT-474. The data set is described as above. The conditions noted are these: Homo sapiens, 72 h treatment, mean ± SD. The class given is cell-based. As for the experimental part: as §1, §2
For data set [6], the system named is MCF-7, MDA-MB-468, BT-474 and HCC1937 breast cancer cells. As to the kind of experiment: Fast screening / CV cell viability, breast cancer cell line panel. It counts as cell-based, human. Also on record: reduction of cell viability: concentration or dose not given beside the values. As for the experimental part:
as §1, §2

Data set [7] deals with 4T1. As to the kind of experiment: Apoptosis analysis, AnnV/PI staining, flow cytometry. The conditions noted are these: 4T1, IC50 for 72 h; control cells 31%. The class given is cell-based, mouse. As for the experimental part: Cells were seeded in 6-well plates and incubated for 24 h under standard culture conditions. […] For apoptosis analyses, the cell suspension was centrifuged for 3 min at 800 rpm, and the cell pellet was stained by using 100 µL of AnnV/PI working solution (5 µL of AnnV, 2 µL of PI in 100 µL of PBS) for 15 min at RT and protected from light. The staining was terminated by the addition of 900 µL of annexin binding buffer. Finally, all samples were analyzed by using flow cytometry (FACSAria III, BD Biosciences, New Jersey, USA).
A general note: A flow cytometer gives signals particle by particle.

As usually defined, the IC50 is the point on the concentration scale where inhibition reaches its midpoint. With `O=c1[nH]c(Nc2ccc([N+](=O)[O-])cc2)nc2ccccc12` [Compound 19, 4′-nitro-9-aza-glycophymine], the “reduction of the tumor volume compared to the control group” value in data set [1] (5 mg/kg i.p., day 21) was determined as 30%. In addition, the median tumor volume in data set [1] (5 mg/kg i.p., days 6–10, 13–17 and 20, measured day 21, control group 205 mm^3) is given as 143 mm^3. Moreover, the “tumor suppression at the higher dose” value in data set [1] (20 mg/kg i.p., compared with 5 mg/kg) is recorded as “no further improvement of the tumor suppression was observed”. Moreover, the IC50 in data set [2] was 5.5 ± 0.6 µM; in data set [3], 4.3 ± 0.1 µM; in data set [4], 12.5 ± 3.7 µM; in data set [5], 4 ± 0.2 µM; in data set [6] (72 h, CV assay, across cell lines, read-out: IC50 values against the breast cancer cell lines), 4 to 6 µM; in data set [6] (Homo sapiens, 72 h, CV assay, across cell lines, read-out: IC50 values against the breast cancer cell lines) it was approximately 4 µM. The concentration for half-maximal inhibition (IC50) in data set [6] (Homo sapiens, 72 h, read-out: IC50 values (National Cancer Institute guideline criterion)) was less than 30 mg/L. In addition, in data set [6] (72 h, initial screening), the “concentration below which active in cytotoxicity screening” value is reported as “below 10 µM”. Besides, the “anti-proliferative / cytotoxic effect” value in data set [6] (72 h, screening at 1, 10 and 50 µM) is on record as “significantly reduced cell proliferation”. The “reduction of cell viability” value in data set [6] (after 72 h of treatment, initial screening) was not below 50%. In addition, in data set [7], the “percentage of apoptotic cells” value amounted to 69%.

(Values after article PMC11568214, “The impact of 9-azaglycophymine and phenylguanidine derivatives on the proliferation of various breast cancer cell lines in vitro and in vivo” (Scientific Reports, 2024).)
